According to paper PMC4514675, “Novel Apo E-Derived ABCA1 Agonist Peptide (CS-6253) Promotes Reverse Cholesterol Transport and Induces Formation of preβ-1 HDL In Vitro” (PLoS ONE, 2015):

How the values were obtained:
[1] = test system: BHK cells expressing ABCA1; test: Nascent HDL particle formation, 2D-PAGGE; assay type: cell-based, hamster; settings: 0.96 μM
Method: Apo A-I and CS-6253-containing particles were separated according to charge (agarose, horizontal axis) and size (polyacrylamide gradient, 3% to 20% gel, vertical axis) as previously described. Apo A-I-containing particles were detected by incubating the membranes with immunopurified polyclonal anti-apo A-I antibody (Biodesign). The nHDL-CS-6253 containing particles were detected with immunopurified polyclonal anti-CS-6253 antibody (Biosynthesis Inc., Lewisville, TX). The anti-CS-6253 is a purified rabbit IgG polyclonal antibody specifically produced by Biosynthesis Inc. It is. Cross reactivity of this antibody was verified by Nondenaturing gradient gel electrophoresis (ND-PAGGE) 5% to 35% [24]. The anti-CS-6253 antibody recognizes only CS-6253 peptide in plasma; neither apo A-I nor apo E were detected by this antibody after separation by gradient gel electrophoresis respectively (Fig 1A, 1B and 1C). High molecular weight protein mixture (GE Healthcare, UK) was run as a standard on each gel.
Next, we investigated the nature of CS-6253-containing particles released in the medium from stimulated ABCA1 cells. Cells were first incubated in 100 mm diameter dishes with either (0.96 μM) apo A-I or CS-6253 in 8 ml of DMEM for 45 min and 6 h at 37°C. These two time points were selected based on our previous work on HDL biogenesis. Lipid free apo A-I or CS-6253 incubated in cell free system media under same conditions were used as control for 2D-PAGGE analysis. Apo A-I or CS-6253-containing particles were separated and analyzed by 2D-PAGGE. […] Both the charge and size of these nascent particles were stable over a 6h incubation period.
Fig 5 Time course ability of CS-6253 to generate nHDL-mimetic like particles. (A and B): nHDL-CS-6253 and nHDL-apo A-I released to the medium at specific time points (45 min and 6 h) from BHK cells expressing ABCA1 were analyzed by 2D-PAGGE. […] Molecular markers are indicated.

[2] = target: ABCA1 (Homo sapiens, UniProt O95477); test: ABCA1-mediated cholesterol efflux from BHK-ABCA1 cells, acceptor in media; assay type: cell-based; parameters: expressed in transfected cells; host or cells: BHK cells, stably transfected, induced with 10 nM mifepristone (gift of J. F. Oram); settings: BHK-ABCA1 induced with mifepristone, 4 h, 37°C, mean ± SD
Excerpt: BHK cells stably transfected with an ABCA1 or ABCG1 expression vector that is mifepristone inducible and cells transfected with the same vector lacking the ABCA1 cDNA insert (mutant or mock-transfected) were generously provided by the late Dr. John F. Oram from the Department of Medicine, University of Washington, and were characterized and cultured as previously described. […] Mouse-derived peritoneal macrophages J774 were purchased from American Tissue Culture Collection (ATCC TIB-67, Cederlane, Burlington, Canada). For induction of ABCA1, BHK cells were incubated for 18–20 h with 10 nM mifepristone. J774 macrophages were stimulated with 0.3 mM Cpt-cAMP 8-(4-Chlorophenylthio)-cyclic adenosine monophosphate (Sigma). All BHK and J774 macrophages cells were respectively grown and maintained in DMEM and RPMI containing 10% fetal serum until experimental treatment. Studies were carried out on standard 24-well plates (150,000 cells/well) unless stated otherwise
We investigated cholesterol efflux from BHK cells after adding lipid free CS-6253 to media cell culture or to human EDTA-plasma which had been stored at -80°C. BHK overexpressing human ABCA1 were labeled with 2 μCi/ml ^3H-free cholesterol (Perkin Elmer, Norwalk, Connecticut) for 24 h. Afterward, BHK-ABCA1 were stimulated with 10 nmol/l mifepristone for 18–20 h (13). Cells were incubated with various doses of acceptor in media for 4 h at 37°C. Alternatively, plasma samples were first pre-incubated for 5 min at 37°C in plasma at mole ratios (10:1 or 1:1 relative to plasma apo A-I). To obtain the HDL fraction, apoB lipoproteins were precipitated from plasma by polyethylene glycol (PEG). […]
Fig 2 Effect of CS-6253 treatment on cholesterol efflux. […] Cholesterol efflux from either ABCA1 cells or control cells to apo A-I (closed circles), and CS-6253 (closed triangles) was determined at the indicated time points. […] ABCA1 was detected from THP-1 foam cells lysis at 4°C with lysis buffer containing 0.5% n-dodecylmaltoside in the presence of a protease inhibitor mixture followed by low speed centrifugation to remove cell debris. Protein concentration was determined by standard assay (Bio-Rad). […] After electrophoresis, ABCA1 was detected by an anti-ABCA1 antibody. […] E. Quantification of FC and CE in foam cells after interaction with CS-6253 and apoA-I. After a period of 4h cholesterol efflux, THP-1 foam cell lipids were extracted with hexane: isopropanol (3v/2v) as under ‘‘Material and Methods’. 3[H]-FC and 3[H]-CE were separated by TLC and located by exposure to iodine vapor, and were scraped off into liquid scintillating vials and assayed for radioactivity. […]

Sequence of ABCA1 (O95477 whole entry): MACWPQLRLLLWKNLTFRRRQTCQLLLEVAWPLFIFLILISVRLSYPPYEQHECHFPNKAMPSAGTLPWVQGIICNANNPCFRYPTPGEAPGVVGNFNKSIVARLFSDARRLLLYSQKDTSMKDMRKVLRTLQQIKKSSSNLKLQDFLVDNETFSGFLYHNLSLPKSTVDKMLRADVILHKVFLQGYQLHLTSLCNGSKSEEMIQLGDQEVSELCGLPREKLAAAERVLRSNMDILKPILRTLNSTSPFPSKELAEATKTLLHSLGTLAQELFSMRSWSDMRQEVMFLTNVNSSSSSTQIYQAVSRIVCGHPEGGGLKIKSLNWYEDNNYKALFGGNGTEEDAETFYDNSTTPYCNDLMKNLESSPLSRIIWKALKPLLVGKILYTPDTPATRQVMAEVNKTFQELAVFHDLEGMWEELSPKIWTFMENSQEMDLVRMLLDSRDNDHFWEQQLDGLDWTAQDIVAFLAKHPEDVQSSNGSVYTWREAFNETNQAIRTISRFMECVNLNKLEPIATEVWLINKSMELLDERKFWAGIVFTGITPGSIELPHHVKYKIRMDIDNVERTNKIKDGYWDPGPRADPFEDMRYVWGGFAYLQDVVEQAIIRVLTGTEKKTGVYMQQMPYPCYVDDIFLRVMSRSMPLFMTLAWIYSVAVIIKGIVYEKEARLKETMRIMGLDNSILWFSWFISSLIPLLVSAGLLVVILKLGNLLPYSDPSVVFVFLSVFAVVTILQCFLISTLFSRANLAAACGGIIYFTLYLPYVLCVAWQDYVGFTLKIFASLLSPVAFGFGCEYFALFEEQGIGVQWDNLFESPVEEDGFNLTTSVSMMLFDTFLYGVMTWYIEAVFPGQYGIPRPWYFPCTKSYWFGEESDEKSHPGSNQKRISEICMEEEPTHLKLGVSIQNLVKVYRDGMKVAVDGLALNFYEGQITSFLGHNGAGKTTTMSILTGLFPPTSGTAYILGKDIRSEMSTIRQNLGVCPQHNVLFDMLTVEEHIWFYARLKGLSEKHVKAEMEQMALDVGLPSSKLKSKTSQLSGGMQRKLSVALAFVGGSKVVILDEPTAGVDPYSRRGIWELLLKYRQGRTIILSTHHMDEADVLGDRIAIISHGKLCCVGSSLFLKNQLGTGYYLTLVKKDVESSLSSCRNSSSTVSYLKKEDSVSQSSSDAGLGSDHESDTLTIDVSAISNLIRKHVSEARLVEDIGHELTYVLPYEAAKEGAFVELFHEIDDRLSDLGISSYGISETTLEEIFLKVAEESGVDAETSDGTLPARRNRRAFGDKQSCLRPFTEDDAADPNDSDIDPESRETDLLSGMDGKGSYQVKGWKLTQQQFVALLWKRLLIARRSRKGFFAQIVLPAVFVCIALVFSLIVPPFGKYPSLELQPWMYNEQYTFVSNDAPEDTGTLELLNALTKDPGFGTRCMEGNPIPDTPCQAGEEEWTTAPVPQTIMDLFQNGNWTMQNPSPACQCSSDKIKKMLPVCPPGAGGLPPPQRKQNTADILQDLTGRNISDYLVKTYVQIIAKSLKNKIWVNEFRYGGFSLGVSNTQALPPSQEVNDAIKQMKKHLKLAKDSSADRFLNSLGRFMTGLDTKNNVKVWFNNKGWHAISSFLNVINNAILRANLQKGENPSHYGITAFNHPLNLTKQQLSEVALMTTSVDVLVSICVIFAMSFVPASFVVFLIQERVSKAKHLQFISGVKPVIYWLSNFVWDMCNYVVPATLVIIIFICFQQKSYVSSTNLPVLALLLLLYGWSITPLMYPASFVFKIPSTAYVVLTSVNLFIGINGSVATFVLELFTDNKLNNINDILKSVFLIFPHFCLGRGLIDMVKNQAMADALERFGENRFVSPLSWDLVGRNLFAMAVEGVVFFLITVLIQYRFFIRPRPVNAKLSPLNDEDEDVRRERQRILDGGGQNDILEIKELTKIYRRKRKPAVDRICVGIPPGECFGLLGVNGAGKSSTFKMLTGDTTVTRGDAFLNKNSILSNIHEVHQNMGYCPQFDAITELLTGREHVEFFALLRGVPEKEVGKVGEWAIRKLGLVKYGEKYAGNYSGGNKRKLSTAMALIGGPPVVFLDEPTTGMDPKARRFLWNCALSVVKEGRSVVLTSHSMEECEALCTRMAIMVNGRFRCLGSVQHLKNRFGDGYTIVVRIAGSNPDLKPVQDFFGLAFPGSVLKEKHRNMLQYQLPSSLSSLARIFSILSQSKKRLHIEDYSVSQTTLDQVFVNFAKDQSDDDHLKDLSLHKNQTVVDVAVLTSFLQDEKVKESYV

apolipoprotein A-I [apo A-I]
electrophoretic mobility of released particles ([1]; 45 min or 6 h, BHK-ABCA1): α-electrophoretic mobility
electrophoretic mobility, incubated without cells ([1]; cell free media): pre-β electrophoretic mobility
molecular diameter, incubated without cells ([1]; lipid free, cell free media, pre-β mobility): 7.1 nm
Km [2]: 0.15 ± 0.02 µM
Km, cholesterol efflux [2]: 4.53 ± 0.67 µg/mL
